Source: ChEMBL document CHEMBL5303304, “EUbOPEN Chemogenomics Library - IncuCyte” (2023)
Values joined by “and” are separate entries in the source; they are usually repeats but may differ in a detail not shown here. Equal entries are not always repeated.

What was measured:
Format in all cases: toxicity, cell-based
HEK-293T = assay: Incucyte cell viability with HEK293T; settings: human, 10 µM, compound concentration 10 uM
Fibroblast = assay: Incucyte cell viability with human fibroblast; settings: 10 µM, compound concentration 10 uM
U2OS = assay: Incucyte cell viability with U2OS; settings: human, 10 µM, compound concentration 10 uM
Note: unitless GR value; below 1 slowed growth and below 0 cell loss.

Compound	Growth Rate (HEK-293T; 6 h, replicate number 1)	Growth Rate (HEK-293T; 6 h, replicate number 2)	Growth Rate (HEK-293T; 12 h, replicate number 1)	Growth Rate (HEK-293T; 12 h, replicate number 2)	Growth Rate (HEK-293T; 18 h, replicate number 1)	Growth Rate (Fibroblast; 0 h, replicate number 1)	Growth Rate (Fibroblast; 0 h, replicate number 2)	Growth Rate (U2OS; 12 h, replicate number 1)	Growth Rate (U2OS; 18 h, replicate number 1)	Growth Rate (HEK-293T; 18 h, replicate number 2)	Growth Rate (HEK-293T; 24 h, replicate number 1)	Growth Rate (HEK-293T; 24 h, replicate number 2)	Growth Rate (Fibroblast; 6 h, replicate number 1)	Growth Rate (Fibroblast; 6 h, replicate number 2)	Growth Rate (Fibroblast; 12 h, replicate number 2)	Growth Rate (Fibroblast; 18 h, replicate number 2)	Growth Rate (Fibroblast; 24 h, replicate number 1)	Growth Rate (Fibroblast; 24 h, replicate number 2)	Growth Rate (U2OS; 6 h, replicate number 1)	Growth Rate (U2OS; 24 h, replicate number 1)	further results
CC[C@H](NC(=O)[C@H](C)NC)C(=O)N1C[C@@H](O)C[C@H]1Cc1c(-c2[nH]c3cc(F)ccc3c2C[C@@H]2C[C@H](O)CN2C(=O)[C@H](CC)NC(=O)[C@H](C)NC)[nH]c2cc(F)ccc12 [BIRINAPANT]	0.67	0.87	0.62	0.97	0.9	-0.44	-0.61	0.81	0.98	–	–	–	–	–	–	–	–	–	–	–	Growth Rate (U2OS; 0 h, replicate number 1): 0.94
O=C(NC1CCNCC1)c1n[nH]cc1NC(=O)c1c(Cl)cccc1Cl [AT-7519]	-0.3	-0.74	-0.27	-0.63	-0.2	-1	-0.43	0.18	0.05	-0.51	-0.15	-0.4	0.78	0.01	-0.1	-0.23	0.08	-0.17	0.44	-0.08	Growth Rate (HEK-293T; 0 h, replicate number 1): -0.17; Growth Rate (Fibroblast; 12 h, replicate number 1): 0.38; Growth Rate (Fibroblast; 18 h, replicate number 1): 0.17; Growth Rate (U2OS; 6 h, replicate number 2): 0.71; Growth Rate (U2OS; 12 h, replicate number 2): 0.4; Growth Rate (U2OS; 24 h, replicate number 2): 0.03
CN1C(=O)Cc2ccc(-c3ccc(C[C@@H](C#N)NC(=O)[C@H]4N[C@@H]5CC[C@H]4C5)c(F)c3)cc21	–	–	0.89	0.82	0.94	-1	–	–	–	0.88	0.87	0.95	0.56	-0.72	0.43	0.5	0.86	0.85	0.49	–	Growth Rate (HEK-293T; 0 h, replicate number 1): 0.62; Growth Rate (Fibroblast; 12 h, replicate number 1): 0.65; Growth Rate (Fibroblast; 18 h, replicate number 1): 0.72
CN(C)C(=O)c1sc2nc(N3CCC(S(C)(=O)=O)CC3)cc(C(F)(F)F)c2c1N [BI-5026]	0.88 and 0.51	0.65	0.83 and 0.56	0.99	0.86 and 0.6	-1	-0.94	0.88 and 0.68	0.84	0.85	0.97 and 0.77	0.98	–	–	–	–	–	–	0.38 and 0.65	0.88 and 0.97	Growth Rate (HEK-293T; 0 h, replicate number 2): 0.24
CNC(=O)c1ccc2c(c1)NC(=O)/C2=C(\Nc1ccc(CN2CCCCC2)cc1)c1ccccc1.Cl.O	–	0.72	–	–	–	-1	–	0.94	0.82	0.71	1	0.54	–	–	–	–	–	0.78	–	0.89	Growth Rate (U2OS; 0 h, replicate number 1): -1
Cc1nnsc1C(=O)Nc1ccc(-n2nc(C(F)(F)F)cc2C(F)(F)F)cc1	0.1	-0.01	0.96	0.28	0.7	–	0.89	0.51	0.97	0.39	0.58	0.42	0.37	-0.36	0.73	0.94	–	0.74	0.52	0.9	Growth Rate (Fibroblast; 12 h, replicate number 1): -1; Growth Rate (U2OS; 0 h, replicate number 2): -0.95; Growth Rate (U2OS; 6 h, replicate number 2): -0.02; Growth Rate (U2OS; 12 h, replicate number 2): 0.42; Growth Rate (U2OS; 18 h, replicate number 2): 0.63; Growth Rate (U2OS; 24 h, replicate number 2): 0.68
CC(=O)N1CCC(c2ccc(C(=O)NC(=N)N)cc2C(F)(F)F)CC1 [BI 9627]	–	0.69	–	0.65	–	–	–	0.75	0.9	0.77	–	0.92	–	–	0.57	0.95	0.8	0.76	0.3	1	Growth Rate (HEK-293T; 0 h, replicate number 1): 0.72; Growth Rate (U2OS; 0 h, replicate number 1): 0.01; Growth Rate (U2OS; 0 h, replicate number 2): 0.44; Growth Rate (U2OS; 12 h, replicate number 2): 0.96; Growth Rate (U2OS; 24 h, replicate number 2): 0.92
CCOC(=O)/N=C(\N)c1ccc(OCc2cccc(COc3ccc(C(C)(C)c4ccc(OC(=O)OCC)cc4)cc3)c2)cc1	-0.49	-0.42	0.04	-0.1	0.49	-0.98	–	–	–	0.08	0.77	0.11	0.42	-0.28	0.87	0.76	0.41	0.79	0.84	–	Growth Rate (Fibroblast; 12 h, replicate number 1): 0.73; Growth Rate (Fibroblast; 18 h, replicate number 1): 0.66
CC[C@]1(C)C[C@@H](OC(=O)CSc2nnc(N)[nH]2)[C@@]2(C)[C@H](C)CC[C@@]3(CCC(=O)[C@H]32)[C@@H](C)[C@@H]1O	0.09	0.46	0.86	0.81	0.65	–	-0.62	0.98	0.95	0.83	0.84	0.87	-0.17	-0.93	0.82	0.99	–	0.97	–	–	Growth Rate (Fibroblast; 18 h, replicate number 1): 0.7
COc1cc(C(C)C)c(Oc2cnc(NC(CO)CO)nc2N)cc1I	–	0.97	–	0.76	–	–	0.81	0.93	0.97	0.82	–	0.89	-0.93	0.67	0.88	0.94	1	–	0.05	0.83	Growth Rate (HEK-293T; 0 h, replicate number 2): 0.85; Growth Rate (U2OS; 0 h, replicate number 2): -0.32; Growth Rate (U2OS; 12 h, replicate number 2): 1
O=C(Nc1ccc(N2CCC(C(=O)N3CCOCC3)CC2)cc1)c1cnc(Oc2ccccc2)nc1	-0.02	–	0.64	–	0.92	–	-0.91	–	–	–	0.95	–	0.98	–	0.75	0.87	0.99	0.78	0.96	–	Growth Rate (HEK-293T; 0 h, replicate number 2): -0.09; Growth Rate (Fibroblast; 18 h, replicate number 1): 0.95
